Values of other authors as cited in PMC9762682, “Tocotrienols: Exciting Biological and Pharmacological Properties of Tocotrienols and Naturally Occurring Compounds, Part II” (Annals of clinical case reports, 2022).
Structures can show the parent of a compound that is named as a salt.

Tests used:
Prostate cancer cells = test system: Prostate cancer cells; set-up: method as in PMID 29606130; value at effective dose: scale not given here; details: for effective dose / percentage of control at effective dose / value at effective dose: 48 h;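 on IC50: anti-proliferation of cancer cells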
Breast cancer cells = test system: Breast cancer cells; set-up: method as in PMID 29606130; value at effective dose: unit not given here;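 on IC50: anti-proliferation of cancer cells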
Hela cells = test system: Hela cells; set-up: method as in PMID 29606130; value at effective dose: unit not given here; details: for effective dose / percentage of control at effective dose / value at effective dose: 48 h;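 on IC50: anti-proliferation of cancer cells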
B-Lymphocyte cells = test system: B-Lymphocyte cells; set-up: method as in PMID 29606130; value at effective dose: unit not given here;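 on IC50: anti-proliferation of cancer cells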
Melanoma cells = test system: Melanoma cells; set-up: method as in PMID 29606130
Lung cancer cells = test system: Lung cancer cells; set-up: method as in PMID 29606130; value at effective dose: unit not given here
Pancreas cancer cells = test system: Pancreas cancer cells; set-up: method as in PMID 29606130; value at effective dose: unit not given here; details: for effective dose / percentage of control at effective dose / value at effective dose: 48 h
Liver cancer cells = test system: Liver cancer cells; set-up: method as in PMID 29606130; value at effective dose: unit not given here; details: for effective dose / percentage of control at effective dose / value at effective dose: 48 h
T-cells (Jurkat) = test system: T-cells (Jurkat); set-up: method as in PMID 29606130; value at effective dose: unit not given here

Structure (SMILES): C[C@@H]1C[C@H]2[C@@H]3CCC4=CC(=O)C=C[C@]4(C)[C@@]3(F)[C@@H](O)C[C@]2(C)[C@@]1(O)C(=O)CO [Dexamethasone]
- IC50 (Prostate cancer cells): 2.5 µM
- percentage of control at IC50 dose (Prostate cancer cells): 45%
- effective dose (Prostate cancer cells): 20 µM
- percentage of control at effective dose (Prostate cancer cells): 32%
- value at effective dose (Prostate cancer cells): 16.7 ± 1.5
- effective dose (Breast cancer cells): 80 µM
- percentage of control at effective dose (Breast cancer cells): 85%
- value at effective dose (Breast cancer cells): 15.7 ± 3.1
- IC50 (Hela cells): 20 µM
- percentage of control at IC50 dose (Hela cells): 54%
- effective dose (Hela cells): 80 µM
- percentage of control at effective dose (Hela cells): 53%
- value at effective dose (Hela cells): 18.0 ± 4.0
- IC50 (B-Lymphocyte cells): 5 µM
- effective dose (B-Lymphocyte cells): 10 µM
- percentage of control at IC50 dose (B-Lymphocyte cells): 45%
- percentage of control at effective dose (B-Lymphocyte cells): 41%
- value at effective dose (B-Lymphocyte cells): 61.0 ± 3.6
- effective dose (Melanoma cells): 40 µM
- percentage of control at effective dose (Melanoma cells): 74%
- IC50 (Lung cancer cells): 2.5 µM
- effective dose (Lung cancer cells): 20 µM
- percentage of control at IC50 dose (Lung cancer cells): 47%
- percentage of control at effective dose (Lung cancer cells): 76%
- value at effective dose (Lung cancer cells): 16.7 ± 2.1
- effective dose (Pancreas cancer cells): 20 µM
- percentage of control at effective dose (Pancreas cancer cells): 73%
- value at effective dose (Pancreas cancer cells): 34.7 ± 4.0
- effective dose (Liver cancer cells): 80 µM
- percentage of control at effective dose (Liver cancer cells): 93%
- value at effective dose (Liver cancer cells): 67.3 ± 4.0
- effective dose (T-cells (Jurkat)): 40 µM
- percentage of control at effective dose (T-cells (Jurkat)): 71%
- value at effective dose (T-cells (Jurkat)): 282.0 ± 21.7

Structure (SMILES): COc1cc2c(cc1O)CC[C@@H]1[C@@H]2CC[C@]2(C)[C@@H](O)CC[C@@H]12 [2-Methoxyestradiol]
- percentage of control at IC50 dose (Prostate cancer cells): 39%
- effective dose (Prostate cancer cells): 10 µM
- percentage of control at effective dose (Prostate cancer cells): 30%
- value at effective dose (Prostate cancer cells): 1.7 ± 1.5
- IC50 (Breast cancer cells): 10 µM
- effective dose (Breast cancer cells): 20 µM
- percentage of control at IC50 dose (Breast cancer cells): 45%
- percentage of control at effective dose (Breast cancer cells): 44%
- value at effective dose (Breast cancer cells): 8.0 ± 2.0
- IC50 (Hela cells): 2.5 µM
- percentage of control at IC50 dose (Hela cells): 48%
- effective dose (Hela cells): 20 µM
- percentage of control at effective dose (Hela cells): 13%
- value at effective dose (Hela cells): 4.3 ± 1.5
- effective dose (B-Lymphocyte cells): 5 µM
- percentage of control at IC50 dose (B-Lymphocyte cells): 5%
- percentage of control at effective dose (B-Lymphocyte cells): 33%
- value at effective dose (B-Lymphocyte cells): 4.0 ± 2.0
- effective dose (Melanoma cells): 10 µM
- percentage of control at IC50 dose (Melanoma cells): 25%
- percentage of control at effective dose (Melanoma cells): 11%
- effective dose (Lung cancer cells): 10 µM
- percentage of control at IC50 dose (Lung cancer cells): 17%
- percentage of control at effective dose (Lung cancer cells): 11%
- value at effective dose (Lung cancer cells): 2.3 ± 1.5
- IC50 (Pancreas cancer cells): 40 µM
- percentage of control at IC50 dose (Pancreas cancer cells): 42%
- effective dose (Pancreas cancer cells): 40 µM
- percentage of control at effective dose (Pancreas cancer cells): 42%
- value at effective dose (Pancreas cancer cells): 20.0 ± 2.0
- IC50 (Liver cancer cells): 5 µM
- percentage of control at IC50 dose (Liver cancer cells): 45%
- effective dose (Liver cancer cells): 10 µM
- percentage of control at effective dose (Liver cancer cells): 27%
- value at effective dose (Liver cancer cells): 19.7 ± 2.1
- effective dose (T-cells (Jurkat)): 5 µM
- percentage of control at IC50 dose (T-cells (Jurkat)): 8%
- percentage of control at effective dose (T-cells (Jurkat)): 8%
- value at effective dose (T-cells (Jurkat)): 31.3 ± 5.7

Structure (SMILES): N=C(N)NC(=O)c1nc(Cl)c(N)nc1N [Amiloride-HCL]
- effective dose (Prostate cancer cells): 80 µM
- percentage of control at effective dose (Prostate cancer cells): 70%
- value at effective dose (Prostate cancer cells): 27.0 ± 4.6
- IC50 (Breast cancer cells): 40 µM
- effective dose (Breast cancer cells): 20 µM
- percentage of control at IC50 dose (Breast cancer cells): 52%
- percentage of control at effective dose (Breast cancer cells): 61%
- value at effective dose (Breast cancer cells): 14.0 ± 5.3
- IC50 (Hela cells): 10 µM
- percentage of control at IC50 dose (Hela cells): 51%
- effective dose (Hela cells): 80 µM
- percentage of control at effective dose (Hela cells): 36%
- value at effective dose (Hela cells): 19.7 ± 1.5
- IC50 (B-Lymphocyte cells): 40 µM
- effective dose (B-Lymphocyte cells): 20 µM
- percentage of control at IC50 dose (B-Lymphocyte cells): 48%
- percentage of control at effective dose (B-Lymphocyte cells): 56%
- value at effective dose (B-Lymphocyte cells): 5.0 ± 1.0
- effective dose (Melanoma cells): 40 µM
- percentage of control at effective dose (Melanoma cells): 90%
- effective dose (Lung cancer cells): 40 µM
- percentage of control at effective dose (Lung cancer cells): 86%
- value at effective dose (Lung cancer cells): 23.3 ± 2.5
- effective dose (Pancreas cancer cells): 80 µM
- percentage of control at effective dose (Pancreas cancer cells): 69%
- value at effective dose (Pancreas cancer cells): 30.7 ± 1.2
- percentage of control at IC50 dose (Liver cancer cells): 56%
- effective dose (Liver cancer cells): 40 µM
- percentage of control at effective dose (Liver cancer cells): 65%
- value at effective dose (Liver cancer cells): 36.7 ± 2.5
- effective dose (T-cells (Jurkat)): 20 µM
- percentage of control at effective dose (T-cells (Jurkat)): 38%
- value at effective dose (T-cells (Jurkat)): 132.7 ± 2.1

Structure (SMILES): O=C1C[C@@H]2[C@@H](CO)[C@H](O)C[C@@H]2O1 [(−) Corey Lactone]
- IC50 (Prostate cancer cells): 80 µM
- percentage of control at IC50 dose (Prostate cancer cells): 51%
- effective dose (Prostate cancer cells): 40 µM
- percentage of control at effective dose (Prostate cancer cells): 60%
- value at effective dose (Prostate cancer cells): 23.3 ± 2.1
- IC50 (Breast cancer cells): 80 µM
- effective dose (Breast cancer cells): 40 µM
- percentage of control at IC50 dose (Breast cancer cells): 55%
- percentage of control at effective dose (Breast cancer cells): 77%
- value at effective dose (Breast cancer cells): 17.7 ± 3.2
- effective dose (Hela cells): 80 µM
- percentage of control at effective dose (Hela cells): 66%
- value at effective dose (Hela cells): 36.0 ± 5.6
- IC50 (B-Lymphocyte cells): 40 µM
- effective dose (B-Lymphocyte cells): 20 µM
- percentage of control at IC50 dose (B-Lymphocyte cells): 37%
- percentage of control at effective dose (B-Lymphocyte cells): 59%
- value at effective dose (B-Lymphocyte cells): 5.3 ± 1.5
- IC50 (Melanoma cells): 80 µM
- effective dose (Melanoma cells): 40 µM
- percentage of control at IC50 dose (Melanoma cells): 46%
- percentage of control at effective dose (Melanoma cells): 62%
- IC50 (Lung cancer cells): 80 µM
- effective dose (Lung cancer cells): 40 µM
- percentage of control at IC50 dose (Lung cancer cells): 44%
- percentage of control at effective dose (Lung cancer cells): 64%
- value at effective dose (Lung cancer cells): 17.3 ± 3.8
- IC50 (Pancreas cancer cells): 80 µM
- percentage of control at IC50 dose (Pancreas cancer cells): 54%
- effective dose (Pancreas cancer cells): 40 µM
- percentage of control at effective dose (Pancreas cancer cells): 58%
- value at effective dose (Pancreas cancer cells): 30.7 ± 1.2
- IC50 (Liver cancer cells): 80 µM
- percentage of control at IC50 dose (Liver cancer cells): 56%
- effective dose (Liver cancer cells): 80 µM
- percentage of control at effective dose (Liver cancer cells): 56%
- value at effective dose (Liver cancer cells): 31.7 ± 2.1
- IC50 (T-cells (Jurkat)): 80 µM
- effective dose (T-cells (Jurkat)): 40 µM
- percentage of control at IC50 dose (T-cells (Jurkat)): 29%
- percentage of control at effective dose (T-cells (Jurkat)): 64%
- value at effective dose (T-cells (Jurkat)): 280.3 ± 10.2

Structure (SMILES): CC1(C)S[C@@H]2[C@H](NC(=O)[C@H](N)c3ccccc3)C(=O)N2[C@H]1C(=O)O [Ampicillin]
- IC50 (Prostate cancer cells): 5 µM
- percentage of control at IC50 dose (Prostate cancer cells): 50%
- effective dose (Prostate cancer cells): 20 µM
- percentage of control at effective dose (Prostate cancer cells): 41%
- value at effective dose (Prostate cancer cells): 15.0 ± 1.0
- effective dose (Breast cancer cells): 40 µM
- percentage of control at effective dose (Breast cancer cells): 74%
- value at effective dose (Breast cancer cells): 16.7 ± 6.1
- effective dose (Hela cells): 80 µM
- percentage of control at effective dose (Hela cells): 88%
- value at effective dose (Hela cells): 47.7 ± 5.5
- effective dose (B-Lymphocyte cells): 10 µM
- percentage of control at effective dose (B-Lymphocyte cells): 66%
- value at effective dose (B-Lymphocyte cells): 44.7 ± 5.1
- effective dose (Melanoma cells): 20 µM
- percentage of control at effective dose (Melanoma cells): 70%
- effective dose (Lung cancer cells): 80 µM
- percentage of control at effective dose (Lung cancer cells): 85%
- value at effective dose (Lung cancer cells): 21.3 ± 1.5
- effective dose (Pancreas cancer cells): 80 µM
- percentage of control at effective dose (Pancreas cancer cells): 74%
- value at effective dose (Pancreas cancer cells): 35.3 ± 5.0
- effective dose (Liver cancer cells): 40 µM
- percentage of control at effective dose (Liver cancer cells): 88%
- value at effective dose (Liver cancer cells): 70.3 ± 4.2
- effective dose (T-cells (Jurkat)): 20 µM
- percentage of control at effective dose (T-cells (Jurkat)): 94%
- value at effective dose (T-cells (Jurkat)): 450.3 ± 15.6

Structure (SMILES): O=C1O[C@H]([C@@H](O)CO)C(O)=C1O [Ascorbic Acid]
- effective dose (Prostate cancer cells): 80 µM
- percentage of control at effective dose (Prostate cancer cells): 81%
- value at effective dose (Prostate cancer cells): 29.3 ± 2.1
- effective dose (Breast cancer cells): 40 µM
- percentage of control at effective dose (Breast cancer cells): 73%
- value at effective dose (Breast cancer cells): 15.0 ± 1.7
- effective dose (Hela cells): 80 µM
- percentage of control at effective dose (Hela cells): 64%
- value at effective dose (Hela cells): 21.0 ± 0.1
- effective dose (B-Lymphocyte cells): 20 µM
- percentage of control at effective dose (B-Lymphocyte cells): 62%
- value at effective dose (B-Lymphocyte cells): 17.3 ± 2.5
- effective dose (Melanoma cells): 80 µM
- percentage of control at effective dose (Melanoma cells): 81%
- IC50 (Lung cancer cells): 10 µM
- effective dose (Lung cancer cells): 20 µM
- percentage of control at IC50 dose (Lung cancer cells): 49%
- percentage of control at effective dose (Lung cancer cells): 46%
- value at effective dose (Lung cancer cells): 15.0 ± 4.4
- effective dose (Pancreas cancer cells): 80 µM
- percentage of control at effective dose (Pancreas cancer cells): 71%
- value at effective dose (Pancreas cancer cells): 42.3 ± 2.5
- effective dose (Liver cancer cells): 80 µM
- percentage of control at effective dose (Liver cancer cells): 90%
- value at effective dose (Liver cancer cells): 74.3 ± 2.5
- effective dose (T-cells (Jurkat)): 40 µM
- percentage of control at effective dose (T-cells (Jurkat)): 89%
- value at effective dose (T-cells (Jurkat)): 451.3 ± 32.4
